# Laboratory results: patent publication US4416885A, “Use of isopropylaminopyrimidine in the chemotherapy of muscular dystrophy, myopathy and myotonia” (priority 1982, dated 1983)
# How the values were obtained:
# Type in all cases: in vivo, chicken
# [1] = tested on: pectoral muscle fibre of dystrophic chickens; assay: Histopathology of pectoral muscle; details: for % Fibre Splitting / % Phagocytosis / Hypertrophy Factor / Mean Endomysial Area / Nuclei/Fibre / Peripheral Nuclei (% of Total) / Range (endomysial area) / Variability Coefficient: 30 days
# Description: Muscle fibre area increase greatly in the dystrophic chicken as does the range of fibre area sizes. Nuclei become displaced peripherally and both features can be measured quantitatively and compared with normal controls.
# The main difference between 4-week (FIG. 1A) and 7-week old (FIG. 2A) normal muscle from pectoral biopsies, at the light microscopic level, is with regard to myofibre growth. There is an increase in fibre area and a redistribution of the position and number of muscle nuclei. The latter change from a random distribution in the fibre in the 4-week bird to a central location in the 7-week bird of about 80% of the nuclei. The fibres are closely packed, with very little connective tissue present and every fibre is clearly polygonal in shape.
# In contrast, dystrophic pectoral muscle has very few fibres which appear normal at 4 weeks of age. They are nearly all rounded in shape (as opposed to polygonal) and many are hypertrophic. Longitudinal fibre splitting occurs and the muscle nuclei lie preferentially against the sarcolemma (FIG. 1B). There is a large increase in perimysial connective tissue. By 7 weeks, massive hypertrophy occurs (FIG. 2B). Fibre splitting leads to hyperplasia. […] Pyknotic nuclei appear, and the muscle nuclei are randomly scattered throughout the fibre. Connective tissue often appears very dense. Some fibres are starting to atrophy and fatty tissue replacement can sometimes be seen at this stage.
# [2] = tested on: dystrophic New Hampshire chickens, line 413; assay: Wing apposition (WA) measurements
# Protocol: (§1) The compound IAPP was tested on dystrophic New Hampshire chickens, line 413, and Imperial College (London, England) sub-line of the original Davis, University of California strain. The chickens are homozygous for muscular dystrophy, the disease appearing with 100% incidence.
# This can be defined as the minimum separation in cm to which the two wing tips can be passively raised, providing a measure of the characteristic loss is flexibility of the wing muscle-tendon system. The test is performed once weekly. In dystrophic birds, WA changes after the first three weeks of life from 0 cm (wings raised and touching) to about 18 cm at 3 months (wings stiff and can barely be raised). The normal controls maintain a score of 0 cm throughout. […]
# (§2) Finally, oral therapy with IAPP was undertaken at gradually increasing dosages up to 1 g/Kg/day. The parameters (physical, biochemical and histological) measured previously were again used to test the efficacy of the drug; five different dosages were used orally, each being given for 30-60 days, daily (Tables VII-XI). A total of 75 animals were treated in the current study with IAPP and 70 control animals were used.
# [3] = tested on: dystrophic New Hampshire chickens, line 413; assay: Flip test (flip number FN, out of five attempts)
# Protocol: as §1
# The animal is placed on its back in the supine position. The number of times it is able to rise, out of five attempts, is known as the flip number (FN). The normal chicken invariably scores 5 (out of 5 attempts), whereas in an untreated dystrophic chicken, the number declines to zero in 6-8 weeks. The test is performed once every […], seven days; more frequent assessment introduces an exercise factor and is not recommended.
# The drug was administered daily in water, injected intra-peritoneally, the amount being adjusted on a weekly basis according to the animal's weight.
# as §2
compound,measurement,setting,value
"CC(C)Nc1ncccn1.O=P(O)(O)O [IAPP, 2-isopropylaminopyrimidine orthophosphate]",% Fibre Splitting,[1]; 150 mg,3.0%
same,% Phagocytosis,[1]; 150 mg,0.0%
same,Hypertrophy Factor,[1]; 150 mg,125
same,Mean Endomysial Area,[1]; 150 mg,1025 μm^2
same,Nuclei/Fibre,[1]; 150 mg,2.5
same,Peripheral Nuclei (% of Total),[1]; 150 mg,46.1 % of Total
same,Range (endomysial area),[1]; 150 mg,82-2001 μm^2
same,Variability Coefficient,[1]; 150 mg,416
same,Fibres still polygonal,"[1]; 150 mg/Kg daily, 7 week old biopsy",50%
same,% Fibre Splitting,[1]; 200 mg,8.4%
same,% Phagocytosis,[1]; 200 mg,1.6%
same,Hypertrophy Factor,[1]; 200 mg,460
same,Mean Endomysial Area,[1]; 200 mg,763 μm^2
same,Nuclei/Fibre,[1]; 200 mg,2.5
same,Peripheral Nuclei (% of Total),[1]; 200 mg,59.1 % of Total
same,Range (endomysial area),[1]; 200 mg,54-2554 μm^2
same,Variability Coefficient,[1]; 200 mg,709
same,% Fibre Splitting,[1]; 300 mg (3× wk.),3.0%
same,% Phagocytosis,[1]; 300 mg (3× wk.),0.0%
same,Hypertrophy Factor,[1]; 300 mg (3× wk.),10
same,Mean Endomysial Area,[1]; 300 mg (3× wk.),449 μm^2
same,Nuclei/Fibre,[1]; 300 mg (3× wk.),1.3
same,Peripheral Nuclei (% of Total),[1]; 300 mg (3× wk.),40.9 % of Total
same,Range (endomysial area),[1]; 300 mg (3× wk.),51-1060 μm^2
same,Variability Coefficient,[1]; 300 mg (3× wk.),518
same,% Fibre Splitting,[1]; 300 mg,10.3%
same,% Phagocytosis,[1]; 300 mg,0.3%
same,Hypertrophy Factor,[1]; 300 mg,100
same,Mean Endomysial Area,[1]; 300 mg,552 μm^2
same,Nuclei/Fibre,[1]; 300 mg,1.7
same,Peripheral Nuclei (% of Total),[1]; 300 mg,42.1 % of Total
same,Range (endomysial area),[1]; 300 mg,24-1226 μm^2
same,Variability Coefficient,[1]; 300 mg,580
same,Muscle appearance vs normal muscle,[1]; 300 mg/Kg 3 times/week at 30 days,indistinguishable from normal muscle
same,Dosage at which histological parameters most closely approximate normal values,[1]; i.p.,300 mg/Kg
same,Muscle morphology,[1]; oral 1 g/Kg daily for 35 days,marked improvements in the muscle morphology
same,"WA, treated","[2]; 200 mg/Kg i.p. daily for 30 days, day 28 ex ovo, control 0.4",1.0 cm
same,"WA, treated","[2]; 200 mg/Kg i.p. daily for 30 days, day 45 ex ovo, control 0.6",1.5 cm
same,"WA, treated","[2]; 200 mg/Kg i.p. daily for 30 days, day 84 ex ovo, control 8.3",8.6 cm
same,"WA, treated","[2]; 300 mg/Kg i.p. daily for 30 days, day 28 ex ovo, control 0.4",0.3 cm
same,"WA, treated","[2]; 300 mg/Kg i.p. daily for 30 days, day 45 ex ovo, control 0.6",1.6 cm
same,"WA, treated","[2]; 300 mg/Kg i.p. daily for 30 days, day 84 ex ovo, control 9.3",14.4 cm
same,"WA, treated","[2]; 300 mg/Kg i.p. three times weekly for 30 days, day 28 ex ovo, control 0.4",0.3 cm
same,"WA, treated","[2]; 300 mg/Kg i.p. three times weekly for 30 days, day 45 ex ovo, control 0.6",2.0 cm
same,"WA, treated","[2]; 300 mg/Kg i.p. three times weekly for 30 days, day 84 ex ovo, control 8.3",11.1 cm
same,"WA, treated","[2]; Exp. 2, 40 mg/Kg i.p. daily, day 7-13, control 0",0 cm
same,"WA, treated","[2]; Exp. 2, 40 mg/Kg i.p. daily, day 14-20, control 0",0 cm
same,"WA, treated","[2]; Exp. 2, 40 mg/Kg i.p. daily, day 21-27, control 0",0 cm
same,"WA, treated","[2]; Exp. 2, 40 mg/Kg i.p. daily, day 28-34, control 0",0 cm
same,"WA, treated","[2]; Exp. 2, 40 mg/Kg i.p. daily, day 35-41, control 2.1",0 cm
same,"WA, treated","[2]; Exp. 2, 40 mg/Kg i.p. daily, day 42-48, control 4.7",2.3 cm
same,"WA, treated","[2]; Exp. 2, 40 mg/Kg i.p. daily, day 56-62, control 5.7",2.9 cm
same,"WA, treated","[2]; Exp. 2, 40 mg/Kg i.p. daily, day 63-71, control 7.5",6.1 cm
same,"WA, treated","[2]; Exp. 3, 70 mg/Kg i.p. daily, day 14-20, control 0",0 cm
same,"WA, treated","[2]; Exp. 3, 70 mg/Kg i.p. daily, day 21-27, control 0",0 cm
same,"WA, treated","[2]; Exp. 3, 70 mg/Kg i.p. daily, day 28-34, control 0",0 cm
same,"WA, treated","[2]; Table VII, oral 200 mg/Kg, 60 days, day 28 ex ovo, control 0.8",0.8 cm
same,"WA, treated","[2]; Table VII, oral 200 mg/Kg, 60 days, day 35 ex ovo, control 1.2",2.5 cm
same,"WA, treated","[2]; Table VII, oral 200 mg/Kg, 60 days, day 45 ex ovo, control 3.4",4.3 cm
same,"WA, treated","[2]; Table VII, oral 200 mg/Kg, 60 days, day 60 ex ovo, control 9.6",10.7 cm
same,"WA, treated","[2]; oral 300 mg/Kg daily, day 28 ex ovo, control 1.6",1.4 cm
same,"WA, treated","[2]; oral 300 mg/Kg daily, day 35 ex ovo, control 1.3",4.5 cm
same,"WA, treated","[2]; oral 450 mg/Kg daily for 45 days, day 28 ex ovo, control 0.2",0.7 cm
same,"WA, treated","[2]; oral 450 mg/Kg daily for 45 days, day 35 ex ovo, control 2.8",1.9 cm
same,"WA, treated","[2]; oral 450 mg/Kg daily for 45 days, day 45 ex ovo, control 5.5",5.8 cm
same,"WA, treated","[2]; oral 450 mg/Kg daily for 45 days, day 50 ex ovo, control 6.2",7.6 cm
same,"WA, treated","[2]; oral 600 mg/Kg daily, day 28 ex ovo, control 0.2",0.3 cm
same,"WA, treated","[2]; oral 600 mg/Kg daily, day 35 ex ovo, control 2.8",1.1 cm
same,"WA, treated","[2]; oral 600 mg/Kg daily, day 45 ex ovo, control 5.5",3.5 cm
same,"WA, treated","[2]; oral 600 mg/Kg daily, day 50 ex ovo, control 6.2",5.5 cm
same,"FN (out of 5 attempts), treated","[3]; 200 mg/Kg i.p. daily for 30 days, day 28 ex ovo, control 4.9",5.0
same,"FN (out of 5 attempts), treated","[3]; 200 mg/Kg i.p. daily for 30 days, day 45 ex ovo, control 3.5",3.3
same,"FN (out of 5 attempts), treated","[3]; 200 mg/Kg i.p. daily for 30 days, day 84 ex ovo, control 0.7",1.4
same,Mean flip number,"[3]; 200 mg/Kg i.p., further 56 days after injections ceased",slightly improved
same,"FN (out of 5 attempts), treated","[3]; 300 mg/Kg i.p. daily for 30 days, day 28 ex ovo, control 4.9",4.5
same,"FN (out of 5 attempts), treated","[3]; 300 mg/Kg i.p. daily for 30 days, day 45 ex ovo, control 3.5",2.3
same,"FN (out of 5 attempts), treated","[3]; 300 mg/Kg i.p. daily for 30 days, day 84 ex ovo, control 0.7",0.1
same,"FN (out of 5 attempts), treated","[3]; 300 mg/Kg i.p. three times weekly for 30 days, day 28 ex ovo, control 4.9",4.5
same,"FN (out of 5 attempts), treated","[3]; 300 mg/Kg i.p. three times weekly for 30 days, day 45 ex ovo, control 3.5",2.7
same,"FN (out of 5 attempts), treated","[3]; 300 mg/Kg i.p. three times weekly for 30 days, day 84 ex ovo, control 0.7",0.6
same,FN Treated (out of 5 attempts),"[3]; Exp. 2, 40 mg/Kg i.p. daily, day 7-13, control 4.5",4.9
same,FN Treated (out of 5 attempts),"[3]; Exp. 2, 40 mg/Kg i.p. daily, day 14-20, control 4.8",5.0
same,FN Treated (out of 5 attempts),"[3]; Exp. 2, 40 mg/Kg i.p. daily, day 35-41, control 2.8",5.0
same,FN Treated (out of 5 attempts),"[3]; Exp. 2, 40 mg/Kg i.p. daily, day 49-55, control 2.0",4.5
same,FN Treated (out of 5 attempts),"[3]; Exp. 2, 40 mg/Kg i.p. daily, day 56-62, control 1.4",3.8
same,FN Treated (out of 5 attempts),"[3]; Exp. 2, 40 mg/Kg i.p. daily, day 63-71, control 0.9",2.3
same,FN Treated (out of 5 attempts),"[3]; Exp. 3, 70 mg/Kg i.p. daily, day 14-20, control 5",5
same,FN Treated (out of 5 attempts),"[3]; Exp. 3, 70 mg/Kg i.p. daily, day 21-27, control 4.8",5
same,FN Treated (out of 5 attempts),"[3]; Exp. 3, 70 mg/Kg i.p. daily, day 28-34, control 5",5
same,"FN (out of 5 attempts), treated","[3]; Table VII, oral 200 mg/Kg, 60 days, day 28 ex ovo, control 5.0",4.1
same,"FN (out of 5 attempts), treated","[3]; Table VII, oral 200 mg/Kg, 60 days, day 35 ex ovo, control 4.4",3.6
same,"FN (out of 5 attempts), treated","[3]; Table VII, oral 200 mg/Kg, 60 days, day 45 ex ovo, control 3.2",2.4
same,"FN (out of 5 attempts), treated","[3]; Table VII, oral 200 mg/Kg, 60 days, day 60 ex ovo, control 2.8",1.8
same,"FN (out of 5 attempts), treated","[3]; oral 300 mg/Kg daily, day 28 ex ovo, control 4.8",4.7
same,"FN (out of 5 attempts), treated","[3]; oral 300 mg/Kg daily, day 35 ex ovo, control 4.7",4.4
same,"FN (out of 5 attempts), treated","[3]; oral 450 mg/Kg daily for 45 days, day 28 ex ovo, control 5.0",5.0
same,"FN (out of 5 attempts), treated","[3]; oral 450 mg/Kg daily for 45 days, day 35 ex ovo, control 3.6",4.8
same,"FN (out of 5 attempts), treated","[3]; oral 450 mg/Kg daily for 45 days, day 45 ex ovo, control 1.7",2
same,"FN (out of 5 attempts), treated","[3]; oral 450 mg/Kg daily for 45 days, day 50 ex ovo, control 1.4",1
same,"FN (out of 5 attempts), treated","[3]; oral 600 mg/Kg daily, day 28 ex ovo, control 5.0",5.0
same,"FN (out of 5 attempts), treated","[3]; oral 600 mg/Kg daily, day 35 ex ovo, control 3.6",4.3
same,"FN (out of 5 attempts), treated","[3]; oral 600 mg/Kg daily, day 45 ex ovo, control 1.7",2.7
same,"FN (out of 5 attempts), treated","[3]; oral 600 mg/Kg daily, day 50 ex ovo, control 1.4",2.3
same,"FN (out of 5 attempts), treated","[3]; oral 1 g/Kg daily, day 28 ex ovo, control 1.7",3.5
same,Birds able to rise from supine 5 times out of 5 attempts,"[3]; oral 1 g/Kg daily, first four weeks, dystrophic controls 20%",Fifty
